From publication PMC5963095 (International Journal for Parasitology: Drugs and Drug …, 2017)

Key:
[1] = target: T1, PfEXP1 (expressed in Pichia pastoris) (Plasmodium falciparum, UniProt Q8IIF0); assay: glutathione S-transferase assay, absorbance at […] nm; assay type: biochemical
T1 sequence (Q8IIF0 23-162): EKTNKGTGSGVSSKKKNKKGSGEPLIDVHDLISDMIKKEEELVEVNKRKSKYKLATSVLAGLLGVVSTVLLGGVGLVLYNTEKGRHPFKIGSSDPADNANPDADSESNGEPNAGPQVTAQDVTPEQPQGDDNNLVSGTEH

[2] = target: T2, PfEXP1 (Plasmodium falciparum, UniProt Q8IIF0); assay: as above; assay type: biochemical
T2 sequence (Q8IIF0 23-162): T1 sequence (Q8IIF0 23-162)

Row | Compound | IC50 [1] | IC50 [2]
1 | C=C[C@H]1C[N@@]2CC[C@H]1C[C@H]2[C@H](O)c1ccnc2ccc(OC)cc12 [quinine] | 179 ± 52.1 nM | 
2 | CCN(CC)CCCC(C)Nc1ccnc2cc(Cl)ccc12 (stereo not drawn) [chloroquine] | 11.1 ± 4.12 nM | 19.3 ± 2.67 nM
